# Source: the supplement of paper PMC11208160
# Test: recombinant UMI read abundance after kanamycin selection (control-corrected) (log10(CPM+1)); higher = more efficient recombination; extreme values may be limits of the assay; sequences stand for … in AGTGCAGAGAAAATCGGCCAGTTTTCTCTGCCTGCAGTCCGCATGCCGTGGGACCCCTTGGGTTCTAACCTGTTGCCTAGATTTATGCAGCGGACTGCCTTTCTCCCAAAGTGATAAACCGG…AGGTTGGTTTCACT; site = the 11-nt donor
# Method in brief: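 Under IPTG (0.07 mM) plus kanamycin, or without selection, Escherichia coli carrying a UMI-tagged donor and donor-binding-loop pair library and a target plasmid for the IS621 bridge recombinase were plated in two replicates. Recombinant UMIs were PCR-amplified across the donor–target junction and sequenced. Counts were converted to CPM, averaged over replicates, scaled by control-derived factors and reported as log10(CPM+1).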
# 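Further: IS621 bridge recombinase in Escherichia coli cells against a fixed T5 target plasmid.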
row,Sequence,recombinant UMI read abundance (log10)
1,GACGCCGCATGGACCGGTTTTCCCGGTAATCCGTATTTGAG (site GACGCCGCTCT),0.349
2,GACGCTACATGGACCGGTTTTCCCGGTAATCCGTATTTGCA (site GACGCTACTTG),1.36
3,GACTATCCATGGACCGGTTTTCCCGGTAATCCGTATTTGCT (site GAATATCCTAG),0.00525
4,GACTATCCATGGACCGGTTTTCCCGGTAATCCGTATTTGCT (site GACTATCCTAG),1.29
5,GACTATCCATGGACCGGTTTTCCCGGTAATCCGTATTTGCT (site GAGTATCCTAG),0
6,GACTATCCATGGACCGGTTTTCCCGGTAATCCGTATTTGCT (site GATTATCCTAG),0
7,GACTCACCATGGACCGGTTTTCCCGGTAATCCGTATTTGAC (site GACTCACCTGT),0
8,GACTCCCCATGGACCGGTTTTCCCGGTAATCCGTATTTGCA (site GACTCCCCTTG),1.3
9,GACTCCTCATGGACCGGTTTTCCCGGTAATCCGTATTTGCC (site AACTCCTCTGG),1.71
10,GACTCCTCATGGACCGGTTTTCCCGGTAATCCGTATTTGCC (site CACTCCTCTGG),1.86
11,GACTCCTCATGGACCGGTTTTCCCGGTAATCCGTATTTGCC (site GACTCCTCTGG),2.02
12,GACTCCTCATGGACCGGTTTTCCCGGTAATCCGTATTTGCC (site TACTCCTCTGG),2.07
13,GACTTAGCATGGACCGGTTTTCCCGGTAATCCGTATTTGTG (site GACTTAGCTCA),0.251
14,GACTTGACATGGACCGGTTTTCCCGGTAATCCGTATTTGCT (site AACTTGACTAG),1.3
15,GACTTGACATGGACCGGTTTTCCCGGTAATCCGTATTTGCT (site CACTTGACTAG),0.596
16,GACTTGACATGGACCGGTTTTCCCGGTAATCCGTATTTGCT (site GACTTGACTAG),0.984
17,GACTTGACATGGACCGGTTTTCCCGGTAATCCGTATTTGCT (site TACTTGACTAG),0.923
18,GACTTGGCATGGACCGGTTTTCCCGGTAATCCGTATTTGGA (site AACTTGGCTTC),0.227
19,GACTTGGCATGGACCGGTTTTCCCGGTAATCCGTATTTGGA (site CACTTGGCTTC),0.579
20,GACTTGGCATGGACCGGTTTTCCCGGTAATCCGTATTTGGA (site GACTTGGCTTC),0.654
21,GACTTGGCATGGACCGGTTTTCCCGGTAATCCGTATTTGGA (site TACTTGGCTTC),0.28
22,GACTTTCCATGGACCGGTTTTCCCGGTAATCCGTATTTGAC (site GACTTTCCTGT),0.0655
23,GAGAATGCATGGACCGGTTTTCCCGGTAATCCGTATTTGCT (site GAGAATGCTAG),2.16
24,GAGACGCCATGGACCGGTTTTCCCGGTAATCCGTATTTGAT (site GAGACGCCTAT),0.566
25,GAGATTCCATGGACCGGTTTTCCCGGTAATCCGTATTTGGG (site GAGATTCCTCC),0.0141

row,Sequence,recombinant UMI read abundance (log10)
1,GAGCACACATGGACCGGTTTTCCCGGTAATCCGTATTTGAT (site GAGCACACTAT),1.9
2,GAGCACACATGGACCGGTTTTCCCGGTAATCCGTATTTGAT (site GAGCCCACTAT),0.0144
3,GAGCACACATGGACCGGTTTTCCCGGTAATCCGTATTTGAT (site GAGCGCACTAT),0.00425
4,GAGCACACATGGACCGGTTTTCCCGGTAATCCGTATTTGAT (site GAGCTCACTAT),0
5,GAGCCGGCATGGACCGGTTTTCCCGGTAATCCGTATTTGAA (site GAGCCGGCTTT),0.241
6,GAGCCGTCATGGACCGGTTTTCCCGGTAATCCGTATTTGAT (site GAGCCGTCTAT),1.32
7,GAGCCTCCATGGACCGGTTTTCCCGGTAATCCGTATTTGAG (site GAGCCTCCTCT),0.0215
8,GAGCGCTCATGGACCGGTTTTCCCGGTAATCCGTATTTGCG (site GAGCGCTCTCG),2.26
9,GAGCGGACATGGACCGGTTTTCCCGGTAATCCGTATTTGGC (site GAGCGGACTGC),2.85
10,GAGCTACCATGGACCGGTTTTCCCGGTAATCCGTATTTGGC (site GAGCTACCTGC),0
11,GAGCTAGCATGGACCGGTTTTCCCGGTAATCCGTATTTGAA (site AAGCTAGCTTT),1.5
12,GAGCTAGCATGGACCGGTTTTCCCGGTAATCCGTATTTGAA (site CAGCTAGCTTT),0.896
13,GAGCTAGCATGGACCGGTTTTCCCGGTAATCCGTATTTGAA (site GAGCTAGCTTT),2.14
14,GAGCTAGCATGGACCGGTTTTCCCGGTAATCCGTATTTGAA (site TAGCTAGCTTT),1.63
15,GAGCTCACATGGACCGGTTTTCCCGGTAATCCGTATTTGAA (site GAGCTCACTAT),0.839
16,GAGCTCACATGGACCGGTTTTCCCGGTAATCCGTATTTGAA (site GAGCTCACTCT),0.0248
17,GAGCTCACATGGACCGGTTTTCCCGGTAATCCGTATTTGAA (site GAGCTCACTGT),0.716
18,GAGCTCACATGGACCGGTTTTCCCGGTAATCCGTATTTGAA (site GAGCTCACTTT),1.43
19,GAGCTCACATGGACCGGTTTTCCCGGTAATCCGTATTTGAG (site GAGCTCACTAT),0.277
20,GAGCTCACATGGACCGGTTTTCCCGGTAATCCGTATTTGAG (site GAGCTCACTCT),0.665
21,GAGCTCACATGGACCGGTTTTCCCGGTAATCCGTATTTGAG (site GAGCTCACTGT),0
22,GAGCTCACATGGACCGGTTTTCCCGGTAATCCGTATTTGAG (site GAGCTCACTTT),0.00749
23,GAGCTCCCATGGACCGGTTTTCCCGGTAATCCGTATTTGAT (site GAGCTCACTAT),0.00938
24,GAGCTCCCATGGACCGGTTTTCCCGGTAATCCGTATTTGAT (site GAGCTCCCTAT),1.07
25,GAGCTCCCATGGACCGGTTTTCCCGGTAATCCGTATTTGAT (site GAGCTCGCTAT),0

row,Sequence,recombinant UMI read abundance (log10)
1,GAGCTCCCATGGACCGGTTTTCCCGGTAATCCGTATTTGAT (site GAGCTCTCTAT),2
2,GAGCTCTCATGGACCGGTTTTCCCGGTAATCCGTATTTGAT (site GAGCTCACTAT),0.0184
3,GAGCTCTCATGGACCGGTTTTCCCGGTAATCCGTATTTGAT (site GAGCTCCCTAT),1.06
4,GAGCTCTCATGGACCGGTTTTCCCGGTAATCCGTATTTGAT (site GAGCTCGCTAT),0.0051
5,GAGCTCTCATGGACCGGTTTTCCCGGTAATCCGTATTTGAT (site GAGCTCTCTAT),2.58
6,GAGCTTCCATGGACCGGTTTTCCCGGTAATCCGTATTTGTC (site GAGCTTCCTGA),0.576
7,GAGGAATCATGGACCGGTTTTCCCGGTAATCCGTATTTGCG (site AAGGAATCTCG),2.23
8,GAGGAATCATGGACCGGTTTTCCCGGTAATCCGTATTTGCG (site CAGGAATCTCG),2.04
9,GAGGAATCATGGACCGGTTTTCCCGGTAATCCGTATTTGCG (site GAGGAATCTCG),2.47
10,GAGGAATCATGGACCGGTTTTCCCGGTAATCCGTATTTGCG (site TAGGAATCTCG),2.25
11,GAGGACGCATGGACCGGTTTTCCCGGTAATCCGTATTTGAG (site GAGGACGCTCT),1.9
12,GAGGAGACATGGACCGGTTTTCCCGGTAATCCGTATTTGCC (site GAGGAGACTGG),1.22
13,GAGGCACCATGGACCGGTTTTCCCGGTAATCCGTATTTGCA (site GAGGCACCTTG),0.344
14,GAGGCACCATGGACCGGTTTTCCCGGTAATCCGTATTTGCA (site GCGGCACCTTG),0
15,GAGGCACCATGGACCGGTTTTCCCGGTAATCCGTATTTGCA (site GGGGCACCTTG),0
16,GAGGCACCATGGACCGGTTTTCCCGGTAATCCGTATTTGCA (site GTGGCACCTTG),0
17,GAGGCCTCATGGACCGGTTTTCCCGGTAATCCGTATTTGAG (site GAGGCCTCTCT),1.42
18,GAGGTGGCATGGACCGGTTTTCCCGGTAATCCGTATTTGGC (site GAGGTGGCTGC),2.13
19,GAGTACGCATGGACCGGTTTTCCCGGTAATCCGTATTTGAT (site GAGTACGCTAT),1.99
20,GAGTAGTCATGGACCGGTTTTCCCGGTAATCCGTATTTGGA (site GAGTAGTCTTC),2.7
21,GAGTCAGCATGGACCGGTTTTCCCGGTAATCCGTATTTGCC (site GAGTCAGCTGG),1.07
22,GAGTTCACATGGACCGGTTTTCCCGGTAATCCGTATTTGAT (site GAGATCACTAT),0.00366
23,GAGTTCACATGGACCGGTTTTCCCGGTAATCCGTATTTGAT (site GAGCTCACTAT),0.905
24,GAGTTCACATGGACCGGTTTTCCCGGTAATCCGTATTTGAT (site GAGGTCACTAT),0
25,GAGTTCACATGGACCGGTTTTCCCGGTAATCCGTATTTGAT (site GAGTTCACTAT),1.69
